Results reported in patent US10112954B2, “Bicyclic heteroaryl derivatives having inhibitory activity for protein kinase” (HANMI PHARM. CO., LTD., priority 2010, dated 2018).

Key:
FGFR3 = molecular target: T1, FGFR3 (Homo sapiens, UniProt P22607); assay: Inhibition of FGFR3 kinase (fluorescence polarization kinase assay); format: biochemical; conditions: Table 2, class symbols; read-out: FGFR3 IC50
T1 construct: purchased Upstate Company
Description: (§1) Inhibition activities of kinases of the inventive compounds (test compounds) prepared in the Examples were assessed and represented as IC50 values.
(§2) Kinases used in Test Examples 1 to 3 were purchased from Upstate Company.
(§3) 100 mM HEPES (pH 7.4), 25 mM MgCl2, 10 mM MnCl2 and 250 μM Na3VO4 were mixed to prepare a kinase buffer. Each of kinases to be measured was diluted to a concentration of 25˜300 ng per one reaction according to its activity with the kinase buffer. Also, each of the test compounds was serially diluted to a concentration starting from 100 nM up to 0.1 nM with the kinase buffer. 10 μl of the serially diluted solution of each of the test compounds and 10 μl of the diluted kinase were added to each well of a 96-well microplate, and the plate was incubated at room temperature for 10 mins. 10 μl of a substrate and 10 μl of ATP were successively added thereto to initiate a kinase reaction, and the resulting mixture was incubated at room temperature for 1 hour. The ATP was used in a form of a solution diluted to a concentration determined according to a kinase's Km value with distilled water. 10˜100 ng/mL poly(Glu, Tyr) 4:1 (Sigma) was used as the substrate. 10 μl of 6 mM EDTA was added to each well and stirred for 5 mins to terminate the kinase reaction. For a measurement of phosphorylation degree, 50 μl of a solution containing anti-phosphotyrosine antibody and fluorescein-labeled phosphopeptide was added to the reaction mixture, followed by incubating for 30 mins. The FP (fluorescence polarization) value of each well was determined with a Victor™ D fluorescence meter (Perkin Elmer Lifesciences).
(§4) IC50, the concentration at which 50% inhibition occurs, was evaluated based on the difference between the final concentration of the test cells and the initial concentration of the cells incubated in a well not-treated with the test compound which was regarded as 100%. IC50 values of the test compounds on the FGFR kinase were shown in Table 2, and those of the test compound obtained in Example 177 on various kinases, in Table 3.

FGFR1 = molecular target: T2, FGFR1 (Homo sapiens, UniProt P11362); assay: Inhibition of FGFR1 kinase (fluorescence polarization kinase assay); format: biochemical; conditions: Table 2, class symbols; read-out: FGFR1 IC50
T2 construct: purchased Upstate Company
T2 sequence (P11362 22-822, species assumed): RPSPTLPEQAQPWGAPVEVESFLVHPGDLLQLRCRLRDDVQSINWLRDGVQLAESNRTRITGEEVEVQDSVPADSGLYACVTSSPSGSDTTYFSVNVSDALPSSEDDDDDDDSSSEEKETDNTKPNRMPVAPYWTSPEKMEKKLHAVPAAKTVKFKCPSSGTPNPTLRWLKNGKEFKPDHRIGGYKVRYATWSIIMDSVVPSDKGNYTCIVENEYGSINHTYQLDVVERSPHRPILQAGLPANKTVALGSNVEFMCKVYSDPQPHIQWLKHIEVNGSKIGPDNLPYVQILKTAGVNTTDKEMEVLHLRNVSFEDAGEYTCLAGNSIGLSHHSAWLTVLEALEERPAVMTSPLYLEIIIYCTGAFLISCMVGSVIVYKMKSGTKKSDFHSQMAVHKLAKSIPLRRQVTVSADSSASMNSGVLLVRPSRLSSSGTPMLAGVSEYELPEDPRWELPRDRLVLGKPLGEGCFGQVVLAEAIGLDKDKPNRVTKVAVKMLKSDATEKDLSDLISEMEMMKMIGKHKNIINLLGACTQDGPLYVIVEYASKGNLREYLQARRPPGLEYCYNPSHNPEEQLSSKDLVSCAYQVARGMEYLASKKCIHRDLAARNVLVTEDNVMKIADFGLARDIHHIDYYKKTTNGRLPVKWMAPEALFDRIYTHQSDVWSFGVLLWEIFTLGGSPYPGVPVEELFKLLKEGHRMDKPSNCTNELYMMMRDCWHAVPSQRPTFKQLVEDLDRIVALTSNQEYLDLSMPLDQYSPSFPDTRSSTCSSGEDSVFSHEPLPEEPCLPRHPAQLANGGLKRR
Description: as §1, §2, §3, §4

T1 sequence (P22607 23-806, species assumed): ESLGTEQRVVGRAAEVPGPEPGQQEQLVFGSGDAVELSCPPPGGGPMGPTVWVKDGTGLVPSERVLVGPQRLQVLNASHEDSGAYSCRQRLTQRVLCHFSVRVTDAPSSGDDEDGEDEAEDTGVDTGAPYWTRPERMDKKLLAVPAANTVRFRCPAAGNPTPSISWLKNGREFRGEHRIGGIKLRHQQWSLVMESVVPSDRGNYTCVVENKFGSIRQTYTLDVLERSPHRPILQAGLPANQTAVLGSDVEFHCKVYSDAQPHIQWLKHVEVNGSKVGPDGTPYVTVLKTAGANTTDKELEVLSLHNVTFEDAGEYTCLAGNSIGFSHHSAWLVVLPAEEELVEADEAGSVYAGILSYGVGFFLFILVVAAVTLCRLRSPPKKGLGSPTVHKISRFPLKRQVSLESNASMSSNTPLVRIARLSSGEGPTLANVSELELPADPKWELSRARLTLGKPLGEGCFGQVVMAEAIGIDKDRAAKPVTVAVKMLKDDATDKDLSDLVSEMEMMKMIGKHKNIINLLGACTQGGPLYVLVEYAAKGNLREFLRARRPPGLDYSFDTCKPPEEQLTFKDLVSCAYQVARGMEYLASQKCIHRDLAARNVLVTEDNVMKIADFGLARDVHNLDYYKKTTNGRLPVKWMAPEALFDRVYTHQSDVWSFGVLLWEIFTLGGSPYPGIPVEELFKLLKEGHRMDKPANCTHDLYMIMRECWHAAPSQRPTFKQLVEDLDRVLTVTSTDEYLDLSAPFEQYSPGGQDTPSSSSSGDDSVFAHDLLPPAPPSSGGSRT

COc1cc(OC)c(Cl)c(NC(=O)c2csc3c(Nc4ccc(NC(=O)CN(C)C)cn4)ncnc23)c1Cl [Example 299, N-(2,6-dichloro-3,5-dimethoxyphenyl)-4-(5-(2-(dimethylamino)acetamido)pyridin-2-ylamino)thieno[3,2-d]pyrimidine-7-carboxamide]
IC50 (FGFR3): 1 to 100 nM | IC50 (FGFR1): 1 to 100 nM

COc1cc(OC)c(Cl)c(NC(=O)c2csc3c(Nc4nc5ccc(C)cc5s4)ncnc23)c1Cl [Example 225, N-(2,6-dichloro-3,5-dimethoxyphenyl)-4-(6-methylbenzo[d]thiazol-2-ylamino)thieno[3,2-d]pyrimidine-7-carboxamide]
IC50 (FGFR3): 500 to 1000 nM | IC50 (FGFR1): 500 to 1000 nM

CCN1CCN(c2cccc(Nc3ncnc4c(C(=O)Nc5c(Cl)c(OC)cc(OC)c5Cl)csc34)c2)CC1 [Example 201, N-(2,6-dichloro-3,5-dimethoxyphenyl)-4-(3-(4-ethylpiperazin-1-yl)phenylamino) thieno[3,2-d]pyrimidine-7-carboxamide]
IC50 (FGFR3): 100 to 500 nM | IC50 (FGFR1): 100 to 500 nM

COc1cc(OC)c(Cl)c(NC(=O)c2csc3c(Nc4ccc5cn[nH]c5c4)ncnc23)c1Cl [Example 229, 4-(1H-indazol-6-ylamino)-N-(2,6-dichloro-3,5-dimethoxyphenyl) thieno[3,2-d]pyrimidine-7-carboxamide]
IC50 (FGFR3): 500 to 1000 nM | IC50 (FGFR1): 1 to 100 nM
